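Protocol summary: plate cells (96-well), add compound at 5 concentrations, incubate 48 h, interpolate endpoints linearly. TGI: concentration producing complete growth inhibition.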
Legend:
Experiment in all cases: DTP human tumour cell line panel, 48 h
[1] = system: EKVX NSCLC
[2] = system: M14 melanoma
[3] = system: SK-OV-3 ovarian
[4] = system: RPMI-8226 leukemia
[5] = system: ACHN renal
[6] = system: MCF7 breast
[7] = system: CCRF-CEM leukemia
[8] = system: SW-620 colon
[9] = system: NCI-H522 lung
[10] = system: OVCAR-4 ovarian
[11] = system: U251 CNS
[12] = system: SK-MEL-28 melanoma
[13] = system: OVCAR-5 ovarian
[14] = system: LOX IMVI melanoma
[15] = system: TK-10 renal
[16] = system: A549 NSCLC
[17] = system: CAKI-1 renal
[18] = system: HL-60(TB) leukemia
[19] = system: HOP-92 NSCLC
[20] = system: NCI-H23 lung

| SMILES | TGI [1] | TGI [2] | TGI [3] | TGI [4] | TGI [5] | TGI [6] | TGI [7] | TGI [8] | TGI [9] | TGI [10] | TGI [11] | TGI [12] | TGI [13] | TGI [14] | TGI [15] | TGI [16] | TGI [17] | TGI [18] | TGI [19] | TGI [20] |
| --- | --- | --- | --- | --- | --- | --- | --- | --- | --- | --- | --- | --- | --- | --- | --- | --- | --- | --- | --- | --- |
| Cc1ccc(C)n1-n1c(Cc2ccc(Cl)cc2)n[nH]c1=O | > 100 µM | > 100 µM | > 100 µM | > 100 µM | > 100 µM | > 100 µM | > 100 µM | > 100 µM | > 100 µM | > 100 µM | > 100 µM | > 100 µM | > 100 µM | > 100 µM | > 100 µM | > 100 µM | > 100 µM |  |  |  |
| CC1(C)CC(=O)c2c(nc3c(ccc4ccccc43)c2-c2ccc(NC(=O)CCCCCCCCC(=O)Nc3ccc(-c4c5c(nc6c4ccc4ccccc46)CC(C)(C)CC5=O)cc3)cc2)C1 | > 100 µM | > 100 µM | > 100 µM | > 100 µM | > 100 µM | > 100 µM | > 100 µM | > 100 µM | > 100 µM |  | > 100 µM | > 100 µM | > 100 µM | > 100 µM | > 100 µM | > 100 µM | > 100 µM | > 100 µM |  |  |
| Cc1ccc(C2=NN=C3C(c4ccccc4)=Nc4ccccc4N3C2)cc1 | > 42.6 µM | 34.4 µM | 85.7 µM | > 73 µM | > 100 µM | > 89.3 µM |  | > 100 µM | 26.8 µM | 21.8 µM | > 81.1 µM | > 100 µM | 99.6 µM | > 100 µM | 1.78 µM | > 100 µM | > 100 µM | 9.64 µM | > 72.9 µM | > 100 µM |
| CNC(=S)N/N=C(\C)c1cc(OC)c(OC)cc1O | > 100 µM | > 100 µM | > 100 µM | > 100 µM | > 100 µM | > 100 µM | > 100 µM | > 100 µM |  |  | > 100 µM | > 100 µM | > 100 µM |  | > 100 µM | > 100 µM | > 100 µM | > 100 µM |  |  |
| CCOC(=O)C1C(c2ccccc2)C2(C#N)C(=N)OC1(C)C2(C#N)C#N (stereo not drawn) | > 100 µM | > 100 µM | > 100 µM | 42.6 µM | 50.8 µM | > 100 µM | 99.7 µM | > 100 µM |  |  | > 100 µM |  | 72.6 µM | 29.4 µM | 69.7 µM | > 100 µM | 20.3 µM | 55.7 µM | 48.6 µM | 37 µM |
| C=CC[C@H](O)[C@@](NC(=O)OCc1ccccc1)(Sc1ccc(C)cc1)C(F)(F)F | > 100 µM | 74.4 µM |  | 71.6 µM | > 100 µM | > 100 µM |  | > 100 µM | 32.4 µM | > 100 µM | 28.4 µM | > 100 µM | 75.4 µM | 16.9 µM | > 100 µM | > 100 µM | 87.7 µM | 28.9 µM | > 100 µM | 70.2 µM |
| CC1(C)CCCCC1/C=C/C(CC(O)(C(F)(F)F)C(F)(F)F)=N\Nc1ccc([N+](=O)[O-])cc1[N+](=O)[O-] (stereo not drawn) |  | 17.2 µM | 14.8 µM | 1.27 µM | 3.17 µM | 5.42 µM | 4.91 µM | 11.4 µM | 13.1 µM | 18.7 µM | 10.7 µM | 18.8 µM | 13.1 µM | 10.6 µM | 15.5 µM | 3.59 µM |  | > 100 µM |  | 0.778 µM |
| CCOc1ccc(-n2c(=O)c3nn4c(=O)n(-c5ccc(OCC)cc5)c(=O)c4nn3c2=O)cc1 | > 100 µM | > 100 µM | > 100 µM | > 100 µM | > 100 µM | > 100 µM |  | > 100 µM | > 100 µM | > 100 µM | > 100 µM | > 100 µM | > 100 µM | > 100 µM | > 100 µM | > 100 µM | > 100 µM | > 100 µM | > 100 µM | > 100 µM |
| CCOC(=O)C(=NN(C)c1ncccc1N)C(=O)OCC |  | > 100 µM | > 100 µM | > 100 µM |  | 39.7 µM | > 100 µM | 70.3 µM |  | > 100 µM | > 100 µM | > 100 µM |  | 38.1 µM | > 100 µM | > 100 µM | > 100 µM | 84.2 µM | 46.2 µM | > 100 µM |
| N=C(N)SCCSC(=N)N | > 100 µM | > 100 µM | > 100 µM | > 100 µM | > 100 µM | > 100 µM |  | > 100 µM | > 100 µM | > 100 µM | > 100 µM | > 100 µM | > 100 µM | > 100 µM | > 100 µM | > 100 µM | > 100 µM |  | > 100 µM | > 100 µM |
| COc1cc(Br)cc2c1O[C@H]1C(=O)CC3CC21CCN3C (stereo partly drawn) | > 100 µM | > 100 µM | > 100 µM | 63.4 µM | > 100 µM | > 100 µM | 43.9 µM | > 100 µM |  |  |  | > 100 µM | > 100 µM | > 100 µM |  | > 100 µM | > 100 µM | 42.7 µM |  | 68.2 µM |
| N#Cc1nc(/C=C/c2cccs2)oc1N | > 100 µM | > 100 µM | > 100 µM | > 100 µM | > 100 µM | > 100 µM | > 100 µM | > 100 µM |  |  | > 100 µM | > 100 µM | > 100 µM | > 100 µM | > 100 µM | > 100 µM | > 100 µM | > 100 µM | > 100 µM |  |
| CC[C@H](C)[C@H](NC(=O)[C@H](Cc1ccc(O)cc1)NCC(F)(F)F)C(=O)OC(C)(C)C | 15.1 µM | 15.1 µM | 17.3 µM | 23.5 µM | 13.9 µM | 19.4 µM |  | 23 µM | 20.1 µM | 13.3 µM | 13.7 µM | 19.1 µM | 18 µM | 17.5 µM | 15.4 µM | 13 µM | 15.7 µM |  | 18.8 µM | 20.5 µM |

Reference: PubChem BioAssay (NCI)
